Results as given in article PMC6804044, “Design, Synthesis and Biological Evaluation of Pentacyclic Triterpene Derivatives: Optimization of Anti-ABL Kinase Activity” (Molecules, 2019).
Entries after “also recorded” stand apart in the source; their conditions may differ. Read-outs that look alike come from different tables or passages of the source.

Assays:
CML cell line K562 = experiment: MTT cell viability assay, K562; format: cell-based, human; conditions: for IC50: read-out: IC50 Values, K562 Cell Line; for SI (selectivity index): ratio of the IC50 between PBMC and K562 cells
Description: A549 human lung carcinoma and HeLa human cervical carcinoma cell lines were cultured in Dulbecco’s Modified Eagle Medium (DMEM). […] In experiments, all cancer cell lines and PBMC were cultured in 24-well and 96-well plates (Iwaki brand Asahi Glass, Chiba, Japan) at 2 × 10^4 cells/mL and 1 × 10^6 cells/mL concentrations, respectively for 24 h.
(§1) The cells were then stained with MTT solution and incubated for additional 4 h. At the end of this period, supernatants were removed and 100 μL DMSO was added to each well to solubilize the formazan crystals. The absorbance of the solution was determined on the Infinitive M1000 (Tecan, Mannedorf, Switzerland) plate reader at a wavelength of 550 nm with background subtraction at 630 nm.

[1] = test system: peripheral blood mononuclear cells (PBMC); experiment: MTT cell viability assay, PBMC; format: cell-based; conditions: 24 h exposure
Description: (§2) A549 human lung carcinoma and HeLa human cervical carcinoma cell lines were cultured in Dulbecco’s Modified Eagle Medium (DMEM). MCF7 human breast cancer and leukemic (K562, HL-60, MT-2 and Jurkat) cells, and PBMC (Precision Bioservices, Frederic, MD, USA) were cultured in RPMI 1640. All media were purchased from FUJIFILM Wako (Osaka, Japan) and supplemented with 10% fetal bovine serum (FBS) (Sigma-Aldrich, St. Louis, MO, USA) and 89 μg/mL streptomycin (Meiji Seika Pharma, Tokyo, Japan) at 37 °C in a humid atmosphere and 5% CO2. In experiments, all cancer cell lines and PBMC were cultured in 24-well and 96-well plates (Iwaki brand Asahi Glass, Chiba, Japan) at 2 × 10^4 cells/mL and 1 × 10^6 cells/mL concentrations, respectively for 24 h.
as §1, with “The cells were exposed to various concentrations (1–100 μM) of the compounds for 24 h at 37 °C. The cells” for “The cells”

K562 cells = experiment: Cell death detection (Hoechst 33342/annexin V/ethidium homodimer III staining); format: cell-based, human; conditions: K562, IC50 concentration, 8 h
Description: The cells were then briefly washed twice with 1 × binding buffer. A staining solution containing 50 μL of 1 × binding buffer and 5 μL of FITC-Annexin V solution, 5 μL of ethidium homodimer III solution, or 5 μL of Hoechst 33342 solution was added, and incubated for 15 min at room temperature in the dark. Then, the cells were washed with 1 × binding buffer, and analyzed by the all-in-one fluorescence microscope Biorevo Fluorescence BZ-9000 (Keyence, Osaka, Japan). The number of healthy cells (Hoechst 33342), apoptotic cells (Annexin V), late apoptotic or necrotic cells (Annexin V and Ethidium homodimer III) and necrotic cells (Ethidium homodimer III) were counted as previously described.

MT-2 = experiment: MTT cell viability assay, MT-2; format: cell-based; conditions: Homo sapiens, MT2, 24 h exposure
Description: as §2
as §1, with “The cells were exposed to various concentrations (1–100 μM) of the compounds for 24 h at 37 °C. The cells” for “The cells”

[2] = test system: ERK1/2 and phosphorylated ERK1/2 in K562 cells; experiment: Immunoblot analysis of ERK signaling in K562; format: cell-based, human; conditions: K562, 10 μM, 6 h
Description: After 6 h of treatment at 37 °C, the cells were lysed in PBS-Laemmli sample buffer and then, immunoblot analysis was conducted using phospho-specific-p44/42 MAPK (Erk1/2) (Thr202/Tyr204) (D13.14.4E) XP Rabbit mAb (1:1000) (Cell Signaling Technology, Danvers, MA, USA) or anti-β-actin clone AC-15 (Sigma-Aldrich, St. Louis, MO, USA). For immunoreactivity detection, the chemiluminescence method was performed as previously described. The band intensity was measured using the ImageJ software (NIH, Bethesda, MD, USA).

[3] = test system: A549 human lung carcinoma; experiment: MTT cell viability assay, A549; format: cell-based
Description: as §2
as §1, with “The cells were exposed to various concentrations (1–100 μM) of the compounds for 24 h at 37 °C. The cells” for “The cells”

HL-60 = experiment: MTT cell viability assay, HL-60; format: cell-based; conditions: Homo sapiens, 24 h exposure
Description: as §2
as §1, with “The cells were exposed to various concentrations (1–100 μM) of the compounds for 24 h at 37 °C. The cells” for “The cells”

ABL1 kinase = target: T1, ABL1 kinase (Homo sapiens, UniProt P00519); experiment: ABL1 kinase inhibition (ADP-Glo Kinase Assay); format: biochemical
T1 construct: purchased Promega, Madison, WI, USA
Description: The ABL1 kinase profiling assay protocol was applied according to the manufacturer`s instructions (Promega, Madison, WI, USA) with the modification proposed in [36]. In this system, the ABL1 kinase and its substrate were diluted with 95 µL 2.5x Kinase Buffer and 15 µL of 100 µM ATP solutions, respectively. Then, the reaction of ABL1 kinase was performed using 2 µL of the compound solution at varying concentrations (0.1–30 µM), 4 µL of kinase working stock, and 4 µL of ATP/substrate working stock in the 384-well plate. After 1 h of incubation at room temperature, the activity of the ABL1 kinase was detected using the ADP-Glo Kinase Assay (Promega, Madison, WI, USA) and the inhibitory kinase activity of compounds in dose-response mode was measured by the Infinitive M1000 luminescence plate reader (Tecan, Groding, Austria).

[4] = test system: HeLa human cervical carcinoma; experiment: MTT cell viability assay, HeLa; format: cell-based; conditions: 24 h exposure
Description: as §2
as §1, with “The cells were exposed to various concentrations (1–100 μM) of the compounds for 24 h at 37 °C. The cells” for “The cells”

MCF7 human breast cancer = experiment: MTT cell viability assay, MCF7; format: cell-based; conditions: 24 h exposure
Description: as §2
as §1, with “The cells were exposed to various concentrations (1–100 μM) of the compounds for 24 h at 37 °C. The cells” for “The cells”

Jurkat = experiment: MTT cell viability assay, Jurkat; format: cell-based; conditions: Homo sapiens, 24 h exposure
Description: as §2
as §1, with “The cells were exposed to various concentrations (1–100 μM) of the compounds for 24 h at 37 °C. The cells” for “The cells”

[5] = Homo sapiens, K562, 24 h, MTT, 24 h exposure

T1 sequence (P00519 whole entry): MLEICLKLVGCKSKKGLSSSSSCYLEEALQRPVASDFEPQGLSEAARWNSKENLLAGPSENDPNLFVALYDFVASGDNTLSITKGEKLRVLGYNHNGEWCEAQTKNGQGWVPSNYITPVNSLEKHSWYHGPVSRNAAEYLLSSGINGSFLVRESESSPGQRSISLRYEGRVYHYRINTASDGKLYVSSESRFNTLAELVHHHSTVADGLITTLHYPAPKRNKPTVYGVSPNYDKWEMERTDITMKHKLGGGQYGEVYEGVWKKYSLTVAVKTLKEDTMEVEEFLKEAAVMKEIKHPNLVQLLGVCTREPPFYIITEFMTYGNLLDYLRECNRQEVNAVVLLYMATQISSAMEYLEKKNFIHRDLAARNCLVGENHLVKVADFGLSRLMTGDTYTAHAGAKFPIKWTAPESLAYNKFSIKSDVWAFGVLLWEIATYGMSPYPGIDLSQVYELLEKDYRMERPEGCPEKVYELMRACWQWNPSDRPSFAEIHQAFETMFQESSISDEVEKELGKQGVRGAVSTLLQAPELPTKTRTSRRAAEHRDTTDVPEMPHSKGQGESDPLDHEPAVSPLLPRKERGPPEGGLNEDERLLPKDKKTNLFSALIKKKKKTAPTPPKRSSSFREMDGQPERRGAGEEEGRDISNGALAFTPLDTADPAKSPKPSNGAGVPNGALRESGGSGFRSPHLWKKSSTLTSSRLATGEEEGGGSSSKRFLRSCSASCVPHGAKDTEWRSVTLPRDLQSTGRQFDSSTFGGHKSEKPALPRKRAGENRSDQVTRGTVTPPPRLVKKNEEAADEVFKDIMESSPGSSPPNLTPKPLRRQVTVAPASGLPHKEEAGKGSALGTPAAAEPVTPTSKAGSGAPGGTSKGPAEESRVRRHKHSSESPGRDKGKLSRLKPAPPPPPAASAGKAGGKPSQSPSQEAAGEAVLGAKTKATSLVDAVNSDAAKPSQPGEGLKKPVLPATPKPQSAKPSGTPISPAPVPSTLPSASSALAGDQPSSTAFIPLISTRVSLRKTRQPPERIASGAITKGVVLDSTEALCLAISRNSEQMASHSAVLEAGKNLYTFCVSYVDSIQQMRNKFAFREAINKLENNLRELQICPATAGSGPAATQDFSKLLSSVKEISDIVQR

IC50 (CML cell line K562; [5]) | Compound | SI (selectivity index) (CML cell line K562) | IC50 ([1]; PBMC) | further results
29.3 ± 3.42 µM | C[C@H]1[C@H](C)CC[C@]2(C(=O)O)CC[C@]3(C)C(=CC[C@@H]4[C@@]5(C)C[C@@H](O)[C@H](O)[C@@](C)(CO)[C@@H]5CC[C@]43C)[C@H]12 [AA, asiatic acid, reference compound] | >3.41 | > 100 µM | –
52.3 ± 4.79 µM | C=C(C)[C@@H]1CC[C@]2(C(=O)O)CC[C@]3(C)[C@H](CC[C@@H]4[C@@]5(C)CC[C@H](O)C(C)(C)[C@@H]5CC[C@]43C)[C@@H]12 [BA, betulinic acid, reference compound] | >1.91 | > 100 µM | –
41 ± 5.34 µM | CC1(C)[C@@H](O)CC[C@]2(C)[C@H]3C(=O)C=C4[C@@H]5C[C@@](C)(C(=O)O)CC[C@]5(C)CC[C@@]4(C)[C@]3(C)CC[C@@H]12 [GA, glycyrrhetinic acid, reference compound] | >2.43 | > 100 µM | –
5.53 ± 1.78 µM | COc1ccc(COC(=O)[C@]23CCC(C)(C)C[C@H]2C2=CC[C@@H]4[C@@]5(C)CC[C@H](O)[C@@](C)(C=O)[C@@H]5CC[C@@]4(C)[C@]2(C)CC3)cc1 [GP1, Gypsogenin 4-methoxybenzyl ester] | 4.53 | 25.1 ± 2.92 µM | melting point: 78 to 80 °C
4.58 ± 1.49 µM | CC1(C)CC[C@]2(C(=O)OCc3ccc(C(F)(F)F)cc3)CC[C@]3(C)C(=CC[C@@H]4[C@@]5(C)CC[C@H](O)[C@@](C)(C=O)[C@@H]5CC[C@]43C)[C@@H]2C1 [GP3, Gypsogenin 4-trifluoromethyl benzyl ester] | 5.07 | 23.2 ± 3.08 µM | melting point: 175 to 177 °C
5.13 ± 1.38 µM | CC1(C)CC[C@]2(C(=O)OCc3cc(F)cc(F)c3)CC[C@]3(C)C(=CC[C@@H]4[C@@]5(C)CC[C@H](O)[C@@](C)(C=O)[C@@H]5CC[C@]43C)[C@@H]2C1 [GP4, Gypsogenin 3,5-difluorobenzyl ester] | 5.51 | 28.3 ± 2.25 µM | melting point: 58 to 60 °C
> 100 µM | CC1(C)CC[C@]2(C(=O)O)CC[C@]3(C)C(=CC[C@@H]4[C@@]5(C)CC[C@H](O)[C@@](C)(CO)[C@@H]5CC[C@]43C)[C@@H]2C1 [HE, hederagenin, reference compound] | >1 | > 100 µM | –
– | Cc1ccc(NC(=O)c2ccc(CN3CCN(C)CC3)cc2)cc1Nc1nccc(-c2cccnc2)n1 [Imatinib, reference compound] | – | – | apoptotic effects on CML cell line (K562 cells): 18%; late apoptotic/necrotic effects (K562 cells): 5.6%
~13 µM | CC1(C)CC[C@]2(C(=O)O)CC[C@]3(C)C(=CC[C@@H]4[C@@]5(C)CC[C@H](O)C(C)(C)[C@@H]5CC[C@]43C)[C@@H]2C1 [OA, oleanolic acid, reference compound] | – | > 100 µM | IC50 (CML cell line K562; MTT, 24 h exposure): 13.5 ± 2.55 µM
4.1 ± 0.85 µM | C[C@H]1[C@H](C)CC[C@]2(C(=O)OCc3ccccc3)CC[C@]3(C)C(=CC[C@@H]4[C@@]5(C)C[C@@H](O)[C@H](O)[C@@](C)(CO)[C@@H]5CC[C@]43C)[C@H]12 [PT1, Asiatic acid benzyl ester] | 3.79 | 15.5 ± 1.08 µM | –
– | CC1(C)[C@@H](O)CC[C@]2(C)[C@H]3C(=O)C=C4[C@@H]5C[C@@](C)(C(=O)OCc6ccccc6)CC[C@]5(C)CC[C@@]4(C)[C@]3(C)CC[C@@H]12 [PT3, Glycyrrhetic acid benzyl ester] | >1.44 | > 100 µM | IC50 (CML cell line K562; Homo sapiens, K562, 24 h): 69.5 ± 8.43 µM
6.48 ± 1.27 µM | CC1(C)CC[C@]2(C(=O)OCc3ccccc3)CC[C@]3(C)C(=CC[C@@H]4[C@@]5(C)CC[C@H](O)[C@@](C)(CO)[C@@H]5CC[C@]43C)[C@@H]2C1 [PT4, Hederagenin benzyl ester] | 3.56 | 23.1 ± 3.11 µM | cytotoxicity on K562 relative to parent triterpene HE (CML cell line K562; fold vs HE): more than 15 times
21.8 ± 1.24 µM | C[C@H]1[C@H](C)CC[C@]2(C(=O)OCc3ccccc3)CC[C@]3(C)C(=CC[C@@H]4[C@@]5(C)CC[C@H](O)C(C)(C)[C@@H]5CC[C@]43C)[C@H]12 [PT6, Ursolic acid benzyl ester] | 1.99 | 43.3 ± 1.93 µM | –
16.5 ± 1.13 µM | C[C@H]1[C@H](C)CC[C@]2(C(=O)O)CC[C@]3(C)C(=CC[C@@H]4[C@@]5(C)CC[C@H](O)C(C)(C)[C@@H]5CC[C@]43C)[C@H]12 [UA, ursolic acid, reference compound] | >6.06 | > 100 µM | –
– | gypsogenin [GP, reference compound] | – | – | IC50 (CML cell line K562; MTT, 24 h exposure): 12.7 ± 2.15 µM; IC50 [1]: > 100 µM

Compound | IC50 (CML cell line K562; [5]) | SI (selectivity index) (CML cell line K562) | IC50 ([1]; PBMC) | further results
C=C(C)[C@@H]1CC[C@]2(C(=O)OCc3ccccc3)CC[C@]3(C)[C@H](CC[C@@H]4[C@@]5(C)CC[C@H](O)C(C)(C)[C@@H]5CC[C@]43C)[C@@H]12 [PT2, Betulinic acid benzyl ester] | 8.49 ± 1.22 µM | 3.29 | 28 ± 2.74 µM | –
CC1(C)CC[C@]2(C(=O)OCc3ccccc3)CC[C@]3(C)C(=CC[C@@H]4[C@@]5(C)CC[C@H](O)C(C)(C)[C@@H]5CC[C@]43C)[C@@H]2C1 [PT5, Oleanolic acid benzyl ester] | ~5.5 µM | 9.19 | 50.2 ± 4.58 µM | IC50 (CML cell line K562; MTT, 24 h exposure): 5.46 ± 1.51 µM; IC50 (MT-2): 34.7 ± 3.85 µM; ERK phosphorylation (phosphorylated ERK1/2) [2]: inhibitory effect of ERK phosphorylation; amount of ERK1/2 [2]: moderately decreased; activity against A549 cell line at 100 µM ([3]; 100 µM): inactive; IC50 ([3]; Homo sapiens, A549, MTT, 24 h exposure): > 100 µM; IC50 (HL-60): 15.7 ± 1.36 µM; IC50 (ABL1 kinase; ADP-Glo, 1 h incubation, room temperature): 1.44 ± 0.12 µM; ABL kinase IC50 potency relative to 1c (ABL1 kinase; fold vs 1c): six times stronger; also recorded: about sixfold; apoptotic effects on CML cell line (K562 cells): 14%; late apoptotic/necrotic effects (K562 cells): 11%; IC50 [4]: 67 ± 4.19 µM; IC50 (MCF7 human breast cancer): 53.9 ± 6.46 µM; IC50 (Jurkat): 13.8 ± 1.58 µM
